# In patent US20050015823A1, “Screening methods employing fish model assessment of vision” (priority 2001, published 2005):
# Legend:
# fish = experiment: treatment of model fish with test substances (drugs arrayed alone or in combination in the water/wells); type: in vivo; conditions: monotherapy
# Text: Fish may be contacted with a test substance, it may be touched or rubbed on their surface or injected into them. A test substance may be added to water in which they are. […] There may be one or multiple fish in each well exposed to the test substance. The test substance may be added prior to the onset of the disease phenotype, concurrent with the onset of the disease phenotype, or subsequent to the onset of the disease phenotype. The same test substance may be added to different wells at different concentration. For example, test substance 1 may be added to well A1 at a concentration of 1 mM, to well A2 at a concentration of 100 uM, to well A3 at a concentration of 10 uM, to well A4 at a concentration of 1 uM and to well A5 at a concentration of 0.1 uM. Then test substance 2 to well B1 etc. The panel of test substances may be known drugs or new chemical entities.
# Additionally, the test substances may be added in combination. For example, well A2 may contain test substance 1 ‘and 2, well A3 test substance 1 and 3, well B2 test substance 2 and 3. Alternatively, every well may contain test substance x, with individual wells containing a panel of additional test substances.
# In other options, a population of fish in a petri dish or a tank may be employed and treated together, e.g. via addition of one or more or a combination of test substances in the water. […]
# [1] = mouse, in vivo; cited from earlier work
SMILES,concentration showing therapeutic effects (fish),toxicity [1]
CN1C(=O)CN=C(c2ccccc2)c2cc(Cl)ccc21 [diazepam],35 µM,
"C[C@H]1c2cccc(O)c2C(=O)C2=C(O)[C@]3(O)C(=O)C(C(N)=O)=C(O)[C@@H](N(C)C)[C@@H]3[C@@H](O)[C@@H]21 [Doxycycline, doxycycline]",,no apparent toxicity
